Measurements reported in BigSolDB 2.1.

O=P(Oc1ccccc1)(Oc1ccccc1)Oc1ccc(OP(=O)(Oc2ccccc2)Oc2ccccc2)cc1
Details	solubility (mole fraction)
in acetone, 293.25 K	0.0058
in acetone, 298.15 K	0.00849
in acetone, 303.45 K	0.0121
in acetone, 308.15 K	0.0171
in acetone, 313.25 K	0.0237
in acetone, 318.15 K	0.0332
in acetone, 323.45 K	0.0442
in acetonitrile, 293.25 K	0.00142
in acetonitrile, 298.15 K	0.00218
in acetonitrile, 303.25 K	0.0034
in acetonitrile, 308.25 K	0.00546
in acetonitrile, 313.25 K	0.00807
in acetonitrile, 318.15 K	0.0117
in acetonitrile, 323.25 K	0.0173
in acetonitrile, 328.15 K	0.0246
in acetonitrile, 333.25 K	0.0357
in diethyl ether, 288.25 K	0.00064
in diethyl ether, 293.25 K	0.00081
in diethyl ether, 298.15 K	0.00101
in diethyl ether, 303.25 K	0.00127
in ethanol, 293.25 K	0.00037
in ethanol, 298.15 K	0.00062
in ethanol, 303.35 K	0.00097
in ethanol, 308.25 K	0.00156
in ethanol, 313.25 K	0.00238
in ethanol, 318.25 K	0.00356
in ethanol, 323.25 K	0.00528
in ethanol, 328.15 K	0.00807
in ethanol, 333.25 K	0.0115
in ethyl acetate, 293.25 K	0.00423
in ethyl acetate, 298.15 K	0.00605
in ethyl acetate, 303.35 K	0.00865
in ethyl acetate, 308.25 K	0.0123
in ethyl acetate, 313.25 K	0.0169
in ethyl acetate, 318.15 K	0.0226
in ethyl acetate, 323.25 K	0.0308
in ethyl acetate, 328.15 K	0.0419
in ethyl acetate, 333.25 K	0.0553
in isopropanol, 293.15 K	0.00013
in isopropanol, 298.23 K	0.00024
in isopropanol, 303.25 K	0.00041
in isopropanol, 308.15 K	0.00071
in isopropanol, 313.35 K	0.00125
in isopropanol, 318.15 K	0.00211
in isopropanol, 323.17 K	0.00346
in isopropanol, 328.15 K	0.00544
in isopropanol, 333.25 K	0.00933
in methanol, 293.25 K	0.00022
in methanol, 298.15 K	0.0004
in methanol, 303.25 K	0.00069
in methanol, 308.15 K	0.00118
in methanol, 313.25 K	0.00205
in methanol, 318.15 K	0.0034
in methanol, 323.45 K	0.00597
in methyl acetate, 293.25 K	0.00522
in methyl acetate, 298.25 K	0.00729
in methyl acetate, 303.25 K	0.0106
in methyl acetate, 308.15 K	0.0144
in methyl acetate, 313.15 K	0.0203
in methyl acetate, 318.15 K	0.0275
in methyl acetate, 323.45 K	0.0369
in n-propanol, 293.15 K	0.00025
in n-propanol, 298.17 K	0.00046
in n-propanol, 303.25 K	0.00078
in n-propanol, 308.15 K	0.00127
in n-propanol, 313.24 K	0.00215
in n-propanol, 318.18 K	0.0035
in n-propanol, 323.25 K	0.00558
in n-propanol, 328.15 K	0.00884
in n-propanol, 333.24 K	0.0136
in toluene, 293.15 K	0.00378
in toluene, 298.25 K	0.00543
in toluene, 303.35 K	0.00795
in toluene, 308.15 K	0.0114
in toluene, 313.25 K	0.0154
in toluene, 318.18 K	0.0219
in toluene, 323.25 K	0.0303
in toluene, 328.16 K	0.0402
in toluene, 333.25 K	0.0556
